Patent US9259453B2, “Use of salmonella flagellin derivative in preparation of drug for preventing and treating inflammatory bowel diseases” (priority 2011, dated 2016)
Entries after “also recorded” stand apart in the source; their conditions may differ.

How the values were obtained:
IBD patients = conditions: cited from earlier work
[1] = statement, no test described; cited from earlier work
[2] = system: mice with ulcerative colitis in TNBS modeling; experiment: Treatment of TNBS-induced ulcerative colitis (IBD) in mice, Example 2; format: in vivo, BALB/c mice
Method: Experimental Animal: Male BALB/c mice (7-8 weeks old, 25±5 g) were obtained from Experimental Animal Center of Academy of Military Medical Sciences (Beijing, China). Mice were provided sterile food and water, and 12 h light/12 h dark cycle. All animal experiments were approved by the Institutional Animal Care and Use Committee at Academy of Military Medical Sciences.
Reagents: 2,4,6-trinitrobenzene sulfonic acid (TNBS, were purchased from Sigma Chemical Co.), CZLC331 (prepared in Example 1), RT PCR kit (ID isFSK100, purchased from Toyobo Biotechnology Co., Ltd.).
Model preparation: Mice (hunger for 36 h) were anesthetized with isoflurane using anesthesia machine. To induce IBD, 150 mg/kg of TNBS (Sigma-Aldrich) in 38% ethanol (to break the intestinal epithelial barrier) was administered by the mouse gavage needle equipped with a 1 ml syringe, what the diameter of silicone tube is 2. 0 mm and the length is about 10 cm, the gavage needle was advanced into the rectum until the tip was 4 cm proximal to the anal verge. The total injection volume was 100 μl.
Experimental animal groups: model group, treatment group and control group (n=8). The control mice received 38% ethanol alone by using the same method described above, and normal feeding two days. The treatment group: BALB/c mice were treated therapeutically with CBLB502 (3.2 mg/kg) at 0.5 h after TNBS administration. At the same time, BALB/c mice were treated therapeutically with CBLB502 (0.2-6.4 mg/kg) from 0.5 h to 8 h after TNBS administration, and normal feeding two days. The mice of model group were normal feeding two days after TNBS administration.
Mice were monitored for the appearance of diarrhea, changes of body weight, and overall mortality. At the end of the experiment after TNBS administration two days, surviving mice were killed, blood samples were collected by cardiac puncture, and a 7-cm segment of the colon was excised for macroscopic (FIG. 1, FIG. 4 left, and FIG. 5) and microscopic damage evaluation (FIG. 2, FIG. 4 right, and FIG. 6). And the end of the colon after washing using physiological saline was kept at −80° C. frozen for follow-up testing.
2. Histological examination: The colonic samples were fixed in 4% buffered formalin overnight and then transferred to 70% ethanol, embedded in paraffin for sectioning, and then stained with hematoxylin and eosin (H&E) to examine the histological differences.

[3] = system: mice with ulcerative colitis in TNBS modeling; experiment: Prevention of TNBS-induced IBD in mice, Example 3; format: in vivo, BALB/c mice
Method: Experimental Animals: the same as in Example 2.
Reagents: the same as in Example 2.
Model preparation: the same as in Example 2.
Experimental animal groups: model group, prevention group and control group (n=8). The prevention group: BALB/c mice were treated therapeutically with CBLB502 (3.2 mg/kg) before TNBS administration, and then the mice were given TNBS and normal feeding two days. The model group was normal feeding two days after TNBS administration. The control mice received 38% ethanol alone by using the same method described above, and normal feeding.
Test contents and test methods: the same as in Example 2.

TLR family = experiment: Expression of TLR family in colon by RT-PCR after treatment in TNBS modeling; format: in vivo, BALB/c mice; conditions: 3.2 mg/kg 4 h after TNBS
Description: The colon samples were removed at the indicated times, washed with phosphate-buffered saline (pH 7.2), and cut in small pieces. Total RNA of colon samples what were control group, modeling group and treatment group were extracted by Total RNA kits II (Omega, Japan) according to the manufacturers' instructions, and then reverse-transcribed by the Reverse Transcription System (Sigma, USA). Subsequently, the TLRs and β-actin were amplified by PCR using the following primers (Table 1). The reaction system of PCR was 500, Ex Taq 0.250, 10× buffer 5 μl, dNTP 5 μl, template 2 μl, the upstream and downstream primers 1 μl, ddH2O 35.75 μl. The reaction condition of PCR is 95° C. 5 min, 95° C. 45 sec, 62° C. 45 sec, 72° C. 1 min, total 25 cycles, and then 72° C. 5 min. PCR products were identified on 2% agarose-gel electrophoresis followed by image analysis software.

[4] = given 0.5 h before TNBS modeling, two days, versus model group

O=C(O)c1cc(/N=N/c2ccc(S(=O)(=O)Nc3ccccn3)cc2)ccc1O [sulfasalazine]
side effects (IBD patients; after taking the drug): nausea, rash, neutropenia | effective rate (IBD patients; clinical drug): about 90% | markedly effective rate (IBD patients; clinical drug): 50% | onset (time until symptoms improved) (IBD patients; clinical): about two

CZLC331: Salmonella flagellin derivative, SEQ ID NO: 3: Tat protein transduction peptide plus flagellin residues 1-176 and 402-505 joined by flexible linker; 331 amino acids
side effects [1]: no significant side effects | toxicity [1]: non-toxic | clinical signs: blood in the stool, feeding/water intake, activity ([2]; 0.2-6.4 mg/kg intraperitoneal, 0.5 h to 8 h after TNBS, two days, versus model group): feeding/water intake of mice return to normal, the activities increased significantly and reduce blood in the stool; also recorded: reduced | colon appearance: congestion, edema, hemorrhage, ulcers ([2]; 0.2-6.4 mg/kg, 0.5 h to 8 h after TNBS, two days, versus model group): significantly reduced; also recorded: began reduce | colonic mucosa HE staining: cell structure, goblet cells, lymphocyte and neutrophil infiltration ([2]; 0.2-6.4 mg/kg, 0.5 h to 8 h after TNBS, versus model group): significantly reduced; also recorded: structures of cells were arranged in neat, a small number of goblet cells and lymphocyte and neutrophil infiltration were disappeared; also recorded: well results for treating | cure rate ([2]; TNBS mice, intraperitoneal CZLC331): 70% | onset (time after administration to effect) ([2]; examples 2 and 3, all animals): 24 h | effective rate ([2]; improvement of feeding, activity and blood in stool, all animals of treatment group and prevention group (examples 2 and 3)): 100% | effective rate of recovered colon mucosa ([2]; treatment group): 75% | clinical signs: blood in the stool, eat less, move less [3, 4]: reduced | colon: congestion, edema, hemorrhage [3, 4]: began reduce | prevention of IBD (overall) ([3]; given before TNBS modeling): protective effects | expression of TLR6 (TLR family; raised in model group): no significant differences | expression of TLR7 (TLR family; raised in model group): no significant differences | expression of TLR8 (TLR family; raised in model group): would change | expression of TLR family (TLR family; versus model group): significant differences with the model group
